Laboratory results taken from ChEMBL document CHEMBL1201862, “PubChem BioAssay data set” (2004).
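Five compound concentrations were applied to cells in 96-well plates for 48 hours; endpoints were derived by simple linear interpolation of the resulting dose-response curve. The concentration for 50% growth inhibition is given as GI50.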 Activity calls are given as the source filed them. No stated cut-off is given here; in the data, active = GI50 up to about 1.1 µM and inactive = higher.

What was measured:
Experiment in all cases: DTP human tumour cell line panel, 48 h
HCC 2998 = tested on: HCC 2998
A549 = tested on: A549
CCRF-CEM = tested on: CCRF-CEM
NCI-H226 = tested on: NCI-H226
NCI-H522 = tested on: NCI-H522
TK-10 = tested on: TK-10
K562 = tested on: K562
UO-31 = tested on: UO-31
DU-145 = tested on: DU-145
EKVX = tested on: EKVX
CAKI-1 = tested on: CAKI-1
NCI/ADR-RES = tested on: NCI/ADR-RES
RXF 393 = tested on: RXF 393
KM12 = tested on: KM12
SF-539 = tested on: SF-539
HCT-15 = tested on: HCT-15
ACHN = tested on: ACHN
HL-60 = tested on: HL-60
PC-3 = tested on: PC-3
SNB-75 = tested on: SNB-75

In the case of `COC1OC(CBr)C(OC(c2ccccc2)(c2ccccc2)c2ccccc2)C(OC(c2ccccc2)(c2ccccc2)c2ccccc2)C1OC(c1ccccc1)(c1ccccc1)c1ccccc1` (stereo not given), the GI50 (HCC 2998) is reported as 65.2 µM (inactive), the GI50 (A549) is reported as 38.9 µM (inactive) and the GI50 (CCRF-CEM) is reported as > 100 µM (inactive). The GI50 (NCI-H226) was 33.4 µM (inactive), the GI50 (NCI-H522) was 16 µM (inactive) and the GI50 (TK-10) was 28.3 µM (inactive). For the same compound, the GI50 (K562) was > 100 µM (inactive), the GI50 (UO-31) was 14.3 µM (inactive) and the GI50 (DU-145) was 76.2 µM (inactive). For the same compound, the GI50 (EKVX) was 17.5 µM (inactive), the GI50 (CAKI-1) was > 100 µM (inactive) and the GI50 (NCI/ADR-RES) was 51.6 µM (inactive). For the same compound, the GI50 (RXF 393) was 33.4 µM (inactive), the GI50 (KM12) was > 100 µM (inactive) and the GI50 (SF-539) was 23.1 µM (inactive). The GI50 (HCT-15) was > 100 µM, the GI50 (ACHN) was 45.9 µM (inactive) and the GI50 (HL-60) was > 100 µM (inactive).
`O=C(Nc1c(Cl)cc([N+](=O)[O-])cc1Cl)C(=O)C1C(=O)NC(=S)NC1=O` was tested, and the GI50 (HCC 2998) was > 100 µM (inactive), the GI50 (A549) was > 100 µM (inactive) and the GI50 (CCRF-CEM) was > 100 µM (inactive). The GI50 (NCI-H226) was > 100 µM (inactive), the GI50 (NCI-H522) was > 100 µM (inactive) and the GI50 (PC-3) was > 100 µM (inactive). For the same compound, the GI50 (TK-10) was > 100 µM (inactive), the GI50 (SNB-75) was > 100 µM (inactive) and the GI50 (K562) was > 100 µM (inactive). For the same compound, the GI50 (UO-31) was > 100 µM (inactive), the GI50 (EKVX) was > 100 µM (inactive) and the GI50 (CAKI-1) was > 100 µM (inactive). The GI50 (NCI/ADR-RES) was > 100 µM (inactive), the GI50 (RXF 393) was > 100 µM (inactive) and the GI50 (KM12) was > 100 µM (inactive). For the same compound, the GI50 (SF-539) was > 100 µM (inactive), the GI50 (HCT-15) was > 100 µM and the GI50 (ACHN) was > 100 µM (inactive). The GI50 (HL-60) was > 100 µM (inactive).
For `O=C(Cc1ccccc1)Nn1c(-c2ccccc2)nc2ccccc2c1=O`, the GI50 (HCC 2998) was > 100 µM (inactive), the GI50 (A549) was > 100 µM (inactive) and the GI50 (CCRF-CEM) was > 100 µM (inactive). The GI50 (NCI-H226) was > 100 µM (inactive), the GI50 (NCI-H522) was > 100 µM (inactive) and the GI50 (PC-3) was > 100 µM (inactive). For the same compound, the GI50 (TK-10) was > 100 µM (inactive), the GI50 (SNB-75) was 8.83 µM (inactive) and the GI50 (K562) was > 100 µM (inactive). For the same compound, the GI50 (UO-31) was > 100 µM (inactive), the GI50 (DU-145) was > 100 µM (inactive) and the GI50 (EKVX) was > 100 µM (inactive). The GI50 (RXF 393) was > 100 µM (inactive), the GI50 (KM12) was > 100 µM (inactive) and the GI50 (SF-539) was > 100 µM (inactive). For the same compound, the GI50 (ACHN) was > 100 µM (inactive) and the GI50 (HL-60) was > 100 µM (inactive).
`Oc1ccc(/N=C/c2ccc(/C=N/c3ccc(O)cc3)cc2)cc1` was tested, and the GI50 (A549) was 19.2 µM (inactive), the GI50 (CCRF-CEM) was 6.41 µM (inactive) and the GI50 (NCI-H226) was 14.6 µM (inactive). For the same compound, the GI50 (NCI-H522) was 17.7 µM (inactive), the GI50 (PC-3) was 16.3 µM (inactive) and the GI50 (TK-10) was 18.1 µM (inactive). The GI50 (SNB-75) was 16.7 µM (inactive), the GI50 (K562) was 17.5 µM (inactive) and the GI50 (UO-31) was 15.2 µM (inactive). The GI50 (DU-145) was 18 µM (inactive), the GI50 (EKVX) was 32.1 µM (inactive) and the GI50 (CAKI-1) was 20 µM (inactive). The GI50 (NCI/ADR-RES) was 14.8 µM (inactive), the GI50 (RXF 393) was 17.1 µM (inactive) and the GI50 (KM12) was 15.3 µM (inactive). The GI50 (SF-539) was 15.3 µM (inactive), the GI50 (HCT-15) was 15 µM and the GI50 (ACHN) was 13.1 µM (inactive).
With `CCOC(=O)C(C)Sc1nnc(COc2ccccc2OC)n1-c1ccccc1` (stereo not given) the GI50 (HCC 2998) was 29.1 µM (inactive), the GI50 (A549) was > 100 µM (inactive) and the GI50 (CCRF-CEM) was 53.7 µM (inactive). The GI50 (NCI-H226) was > 100 µM (inactive), the GI50 (NCI-H522) was 42 µM (inactive) and the GI50 (TK-10) was > 100 µM (inactive). The GI50 (SNB-75) was > 100 µM (inactive), the GI50 (K562) was 30.1 µM (inactive) and the GI50 (UO-31) was > 100 µM (inactive). The GI50 (EKVX) was > 100 µM (inactive), the GI50 (CAKI-1) was > 100 µM (inactive) and the GI50 (RXF 393) was 52.4 µM (inactive). For the same compound, the GI50 (KM12) was > 100 µM (inactive), the GI50 (SF-539) was > 100 µM (inactive) and the GI50 (HCT-15) was 16.9 µM. The GI50 (ACHN) was > 100 µM (inactive) and the GI50 (HL-60) was 32.8 µM (inactive).
With `CC(=O)OC1C(C)OC(OC(=O)C2CCC3C(C2)OC2(CC(OC(=O)/C=C/c4ccccc4)C(C)CO2)C32CO2)C(OC2OC(C)C(O)C(OC(C)=O)C2O)C1O` (stereo not given) the GI50 (HCC 2998) was < 0.01 µM (active), the GI50 (A549) was < 0.01 µM (active) and the GI50 (CCRF-CEM) was < 0.01 µM (active). The GI50 (NCI-H226) was < 0.01 µM (active), the GI50 (NCI-H522) was < 0.01 µM (active) and the GI50 (PC-3) was < 0.01 µM (active). The GI50 (TK-10) was 0.0131 µM (active), the GI50 (SNB-75) was < 0.01 µM (active) and the GI50 (K562) was < 0.01 µM (active). The GI50 (UO-31) was 0.499 µM (active), the GI50 (DU-145) was < 0.01 µM (active) and the GI50 (EKVX) was < 0.01 µM (active). For the same compound, the GI50 (CAKI-1) was 0.245 µM (active), the GI50 (RXF 393) was < 0.0152 µM (active) and the GI50 (KM12) was < 0.01 µM (active). The GI50 (SF-539) was < 0.01 µM (active), the GI50 (HCT-15) was 0.319 µM and the GI50 (ACHN) was < 0.0421 µM (active). The GI50 (HL-60) was < 0.01 µM (active).
In the case of `COC(=O)C1=C(C)N(NC(=O)OC(C)(C)C)C(=O)C1=P(c1ccccc1)(c1ccccc1)c1ccccc1`, the GI50 (HCC 2998) is reported as > 100 µM (inactive), the GI50 (A549) is reported as > 100 µM (inactive) and the GI50 (CCRF-CEM) is reported as > 100 µM (inactive). For the same compound, the GI50 (NCI-H226) was > 100 µM (inactive), the GI50 (NCI-H522) was 75.5 µM (inactive) and the GI50 (TK-10) was > 100 µM (inactive). For the same compound, the GI50 (SNB-75) was > 100 µM (inactive), the GI50 (K562) was 73.5 µM (inactive) and the GI50 (UO-31) was > 100 µM (inactive). The GI50 (EKVX) was > 100 µM (inactive), the GI50 (CAKI-1) was > 100 µM (inactive) and the GI50 (RXF 393) was > 100 µM (inactive). The GI50 (KM12) was 64 µM (inactive), the GI50 (SF-539) was > 100 µM (inactive) and the GI50 (HCT-15) was > 100 µM. For the same compound, the GI50 (ACHN) was > 100 µM (inactive) and the GI50 (HL-60) was 42.4 µM (inactive).
